Results reported in patent US20240368667A1, “RAPID, LABEL-FREE ANTIBIOTIC SUSCEPTIBILITY OF BACTERIA DIRECTLY FROM POSITIVE BLOOD OR BODILY FLUID/CULTURE” (priority 2021, published 2024).
Values after ≈ are worked out from the molar mass of the structure shown.

Key:
E. coli [1] = assay: Broth microdilution (BMD) MIC; type: cell-based, Escherichia coli; set-up: key to susceptibility classification, BMD: (S) sensitive; (I) intermediate; (R) resistant; conditions: broth microdilution; for MIC: Escherichia coli, read-out: Minimum inhibitory concentration, BMD
Protocol: (§1) Microbroth dilution for minimum inhibitory concentrations (MIC) with and without sucrose recovery. To isolate bacteria without sucrose, culture media from positive BacT/alert FA PLUS aerobic culture bottles (bioMérieux, Durham, NC) was serially diluted and plated onto LB agar (Lennox; Sigma-Aldrich, St. Louis, MO). Bacterial suspensions were prepared by resuspending colonies in CAMHB with incubation on a MaxQ 4000 incubator shaker (Thermo Fisher Scientific, Waltham, MA) at 37° C. and ˜225 rpm for 3 hours. Bacteria recovered via Method 2 were diluted 10-fold in CAMHB. Following incubation or sucrose recovery and dilution, bacterial suspensions were adjusted to ˜0.004 OD600 with CAMHB and a 50-μL aliquot distributed to each well of a 96-well plate containing CAMHB with and without clinically relevant antibiotics (2-fold dilution series). Gram-negative plates included: ceftazidime (3rd generation cephalosporin, RPI corp., Mount Prospect, IL), cefepime (4th generation cephalosporin, Chem-Impex Int'l, Wood Dale, IL), meropenem (carbapenem, Tokyo Chemical Industry, Tokyo, Japan), levofloxacin (quinolone, Alfa Aesar, Haverhill, MA), and tobramycin (aminoglycoside, MP Biomedicals LLC, Santa Ana, CA), while S. aureus plates contained: oxacillin (beta-lactam, Sigma-Aldrich, St. Louis, MO), vancomycin (glycopeptide, Santa Cruz Biotechnology, Dallas, TX), erythromycin (macrolide, Sigma-Aldrich, St. Louis, MO), clindamycin ([…]), and ciprofloxacin (fluoroquinolone, Sigma-Aldrich, St. Louis, MO). Antibiotic plates were incubated at 37° C. for 16-20 hours (gram-negative) or 35° C. for 24 hours (S. aureus), at which time, plates were removed from the incubator and visually inspected for bacterial growth. The MIC was set at the lowest antibiotic concentration at which no growth was detected.

E. coli [2] = assay: Direct flow cytometric AST (high-throughput flow cytometry, HTFC) of sucrose-recovered bacteria; type: cell-based, Escherichia coli; set-up: key to susceptibility classification, HTFC: (S) sensitive; (I) intermediate; (R) resistant; conditions: sucrose-recovered, antibiotic 4 hours (37° C.); for MIC: Escherichia coli, 4 h, read-out: Minimum inhibitory concentration, HTFC
Protocol: (§2) AST workflow using bacteria recovered directly from positive blood culture. A 1-mL aliquot of bacteria recovered using separation method 2 was diluted 10-fold in CAMHB, the OD600 adjusted to ˜0.01, and a 50 μL aliquot distributed into each well of a 96-well plate containing CAMHB with and without ceftazidime, tobramycin, and either meropenem (E. coli and P. aeruginosa) or oxacillin (S. aureus). Following Clinical and Laboratory Standards Institute (CLSI) guidelines^33, 2% sodium chloride (NaCl) was present in wells containing oxacillin to assist in the detection of methicillin-resistant S. aureus (MRSA). […] To account for observed differences in doubling and lag times, E. coli and P. aeruginosa were incubated for 4 hours at 37° C., while S. aureus was incubated for 9 hours at 35° C. After incubation, antibiotic plates were removed from the incubator and directly stored on ice (i.e. no post-processing) until high-throughput flow cytometry (BD LSRFortessa with HTS-system, BD, Franklin Lakes, NJ). No-antibiotic controls and antibiotic-treated samples were handled identically.
(§3) MIC Determination by flow cytometry. Because antibiotic effects are observed in both the position of scatter signatures (morphology changes) and count rates (growth inhibition), a modified count rate, accounting for scatter position, was used to evaluate susceptibility. Briefly, no-antibiotic control populations (triplicate) were pooled, binned, and a convex hull boundary set at 1-standard deviation above the background (not including bins with zero counts) was drawn. […] The overlap ratio, measuring changes in morphology, was then computed by dividing the number of sample events within the no-antibiotic control boundary by the total number of events within the sample. As an increase in count rate attributed to viable bacteria in antibiotic-treated samples is not scientifically meaningful, the fractional overlap was multiplied by the minimum of the control and sample count rates to generate a modified count rate accounting for antibiotic-induced morphological changes. All modified count rates were normalized by the average of the no-antibiotic controls. For automatic MIC determination, normalized count rates corresponding to n (index of predicted MIC), n+1, n+2 were iteratively fit to a linear function with a frameshift of n+1 between iterations (FIGS. 8 and 9). […] A threshold of −0.01 instead of zero was used to mitigate the influence of small fluctuations in normalized count rates on susceptibility determinations.

P. aeruginosa [3] = assay: as above; type: cell-based, Pseudomonas aeruginosa; set-up: key to susceptibility classification, HTFC: (S) sensitive; (I) intermediate; (R) resistant; conditions: for MIC: Pseudomonas aeruginosa, read-out: Minimum inhibitory concentration, HTFC
Protocol: as §2, §3

P. aeruginosa [4] = assay: Broth microdilution (BMD) MIC; type: cell-based, Pseudomonas aeruginosa; set-up: key to susceptibility classification, BMD: (S) sensitive; (I) intermediate; (R) resistant; conditions: broth microdilution; for MIC: Pseudomonas aeruginosa, read-out: Minimum inhibitory concentration, BMD
Protocol: as §1

MIC (E. coli [1]; E. coli Blood Culture A): 16 µg/mL (≈ 29.3 µM)
MIC (E. coli [1]; E. coli Blood Culture B): 64 µg/mL (≈ 117 µM)
MIC (E. coli [1]; E. coli EC37): 32 µg/mL (≈ 58.5 µM)
MIC (E. coli [1]; E. coli EC-bank): 32 µg/mL (≈ 58.5 µM)
MIC (E. coli [1]; E. coli Mu76): 2 µg/mL (≈ 3.66 µM)
MIC (E. coli [1]; E. coli Mu218): 32 µg/mL (≈ 58.5 µM)
MIC (E. coli [1]; E. coli Mu890): 0.5 µg/mL (≈ 0.915 µM)
MIC (P. aeruginosa [4]; P. aeruginosa Blood Culture B): 4 µg/mL (≈ 7.32 µM)
MIC (P. aeruginosa [4]; P. aeruginosa Blood Culture C): 1 µg/mL (≈ 1.83 µM)
MIC (P. aeruginosa [4]; P. aeruginosa PA7): 128 µg/mL (≈ 234 µM)
MIC (P. aeruginosa [4]; P. aeruginosa PA46): 1 µg/mL (≈ 1.83 µM)
MIC (P. aeruginosa [4]; P. aeruginosa PA49): 2 µg/mL (≈ 3.66 µM)
MIC (P. aeruginosa [4]; P. aeruginosa PA81): 4 µg/mL (≈ 7.32 µM)
MIC (P. aeruginosa [4]; PAO1, P. aeruginosa PAO1): 1 µg/mL (≈ 1.83 µM)
SMILES: CC(C)(O/N=C(\C(=O)N[C@@H]1C(=O)N2C(C(=O)[O-])=C(C[n+]3ccccc3)CS[C@H]12)c1csc(N)n1)C(=O)O [Ceftazidime, ceftazidime]
susceptibility classification, BMD (E. coli [1]; E. coli Blood Culture A): (R)
susceptibility classification, BMD (E. coli [1]; E. coli Blood Culture B): (R)
susceptibility classification, BMD (E. coli [1]; E. coli EC37): (R)
susceptibility classification, BMD (E. coli [1]; E. coli EC-bank): (R)
susceptibility classification, BMD (E. coli [1]; E. coli Mu76): (S)
susceptibility classification, BMD (E. coli [1]; E. coli Mu218): (R)
susceptibility classification, BMD (E. coli [1]; E. coli Mu890): (S)
susceptibility classification, HTFC (E. coli [2]; E. coli Blood Culture A): (I)
susceptibility classification, HTFC (E. coli [2]; E. coli Blood Culture B): (R)
susceptibility classification, HTFC (E. coli [2]; E. coli EC37): (I)
susceptibility classification, HTFC (E. coli [2]; E. coli EC-bank): (R)
susceptibility classification, HTFC (E. coli [2]; E. coli Mu76): (S)
susceptibility classification, HTFC (E. coli [2]; E. coli Mu218): (R)
susceptibility classification, HTFC (E. coli [2]; E. coli Mu890): (S)
MIC (E. coli [2]; E. coli Blood Culture A): 8 µg/mL (≈ 14.6 µM)
MIC (E. coli [2]; E. coli Blood Culture B): 32 µg/mL (≈ 58.5 µM)
MIC (E. coli [2]; E. coli EC37): 8 µg/mL (≈ 14.6 µM)
MIC (E. coli [2]; E. coli EC-bank): 16 µg/mL (≈ 29.3 µM)
MIC (E. coli [2]; E. coli Mu76): 1 µg/mL (≈ 1.83 µM)
MIC (E. coli [2]; E. coli Mu218): 16 µg/mL (≈ 29.3 µM)
MIC (E. coli [2]; E. coli Mu890): ≤ 0.25 µg/mL
susceptibility classification, HTFC (P. aeruginosa [3]; P. aeruginosa Blood Culture B, antibiotic 4 hours (37° C.)): (S)
susceptibility classification, HTFC (P. aeruginosa [3]; P. aeruginosa Blood Culture C, antibiotic 4 hours (37° C.)): (S)
susceptibility classification, HTFC (P. aeruginosa [3]; P. aeruginosa PA7, antibiotic 4 hours (37° C.)): (S)
susceptibility classification, HTFC (P. aeruginosa [3]; P. aeruginosa PA46, antibiotic 4 hours (37° C.)): (S)
susceptibility classification, HTFC (P. aeruginosa [3]; P. aeruginosa PA49, antibiotic 4 hours (37° C.)): (S)
susceptibility classification, HTFC (P. aeruginosa [3]; P. aeruginosa PA81, antibiotic 4 hours (37° C.)): (S)
susceptibility classification, HTFC (P. aeruginosa [3]; P. aeruginosa PAO1, antibiotic 4 hours (37° C.)): (S)
MIC (P. aeruginosa [3]; 4 h, P. aeruginosa Blood Culture B, antibiotic 4 hours (37° C.)): 4 µg/mL (≈ 7.32 µM)
MIC (P. aeruginosa [3]; 4 h, P. aeruginosa Blood Culture C, antibiotic 4 hours (37° C.)): 2 µg/mL (≈ 3.66 µM)
MIC (P. aeruginosa [3]; 4 h, P. aeruginosa PA7, antibiotic 4 hours (37° C.)): 8 µg/mL (≈ 14.6 µM)
MIC (P. aeruginosa [3]; 4 h, P. aeruginosa PA46, antibiotic 4 hours (37° C.)): 2 µg/mL (≈ 3.66 µM)
MIC (P. aeruginosa [3]; 4 h, P. aeruginosa PA49, antibiotic 4 hours (37° C.)): 4 µg/mL (≈ 7.32 µM)
MIC (P. aeruginosa [3]; 4 h, P. aeruginosa PA81, antibiotic 4 hours (37° C.)): 8 µg/mL (≈ 14.6 µM)
MIC (P. aeruginosa [3]; PAO1, 4 h, P. aeruginosa PAO1, antibiotic 4 hours (37° C.)): 1 µg/mL (≈ 1.83 µM)
susceptibility classification, BMD (P. aeruginosa [4]; P. aeruginosa Blood Culture B): (S)
susceptibility classification, BMD (P. aeruginosa [4]; P. aeruginosa Blood Culture C): (S)
susceptibility classification, BMD (P. aeruginosa [4]; P. aeruginosa PA7): (R)
susceptibility classification, BMD (P. aeruginosa [4]; P. aeruginosa PA46): (S)
susceptibility classification, BMD (P. aeruginosa [4]; P. aeruginosa PA49): (S)
susceptibility classification, BMD (P. aeruginosa [4]; P. aeruginosa PA81): (S)
susceptibility classification, BMD (P. aeruginosa [4]; P. aeruginosa PAO1): (S)
